Experimental data from patent US8163793B2, “Proline derivatives” (Hoffman-La Roche Inc., priority 2009, dated 2012).
Where a name gives a salt, the structure may show the parent alone.

How the values were obtained:
[1] = target: Cathepsin S (UniProt P25774); test: Cathepsin enzyme inhibition assay (fluorogenic peptide substrate Z-Val-Val-Arg-AMC), Cathepsin S; type: biochemical, human and mouse; conditions: enzyme 1 nM, substrate 20 μM, pH 6.5; read-out: CatS IC50
Description: (§1) Cathepsin Enzyme Inhibition Assay
(§2) Enzyme activity is measured by observing the increase in fluorescence intensity caused by cleavage of a peptide substrate containing a fluorophore whose emission is quenched in the intact peptide.
(§3) Assay buffer: 100 mM potassium phosphate pH 6.5, EDTA-Na 5 mM, Triton X-100 0.001%, DDT 5 mM.
(§4) Enzymes (all at 1 nM): human and mouse Cathepsin S, Cat K, Cat B, Cat L Substrate (20 μM): Z-Val-Val-Arg-AMC, except for Cat K which uses Z-Leu-Arg-AMC (both from Bachem).
(§5) AMC=7-Amino-4-Methyl-Coumarin.
Enzyme is added to the substance dilutions in 96-well microtitre plates and the reaction is started with substrate. […] IC50 are calculated by standard methods. The results are expressed in μM in the following table.

[2] = target: Cat L (UniProt P07711); test: Cathepsin enzyme inhibition assay (fluorogenic peptide substrate Z-Val-Val-Arg-AMC), Cathepsin L; type: biochemical, human and mouse; conditions: enzyme 1 nM, substrate 20 μM, pH 6.5; read-out: CatL IC50
Description: as §1, §2, §3, §4, §5
Excitation 360 nm, Emission 465 nm.
Enzyme is added to the substance dilutions in 96-well microtitre plates and the reaction is started with substrate. Fluorescence emission is measured over 20 minutes, during which time a linear increase is observed in the absence of inhibitor. IC50 are calculated by standard methods. The results are expressed in μM in the following table.

Compound | IC50 [1] [nM] | IC50 [2] [nM]
N#CC1(NC(=O)C2C[C@@H](S(=O)(=O)c3ccc(OCC(F)(F)F)cc3Cl)CN2C(=O)C2(c3ccc(Cl)nc3)CC2)CC1 (stereo in doubt) [Example 377, (R)-1-[1-(6-Chloro-pyridin-3-yl)-cyclopropanecarbonyl]-4-[2-chloro-4-(2,2,2-trifluoro-ethoxy)-benzenesulfonyl]-pyrrolidine-2-carboxylic acid (1-cyano-cyclopropyl)-amide] | 0.24 | 293
CC(C)(C)OC(=O)N1C[C@H](S(=O)(=O)c2ccccc2OC(F)(F)F)C[C@H]1C(=O)NC1(C#N)CC1 [Example 2, (2S,4R)-2-(1-Cyano-cyclopropylcarbamoyl)-4-(2-trifluoromethoxy-benzenesulfonyl)-pyrrolidine-1-carboxylic acid tert-butyl ester] | 43.5 | ≥ 25000
CC(C)(C)OC(=O)N1C[C@H](S(=O)(=O)c2ccc(-n3ccnc3)cc2)C[C@H]1C(=O)NC1(C#N)CC1 [Example 3, (2S,4R)-2-(1-Cyano-cyclopropylcarbamoyl)-4-(4-imidazol-1-yl-benzenesulfonyl)-pyrrolidine-1-carboxylic acid tert-butyl ester] | 11 | ≥ 25000
CC(C)(C)OC(=O)N1C[C@H](S(=O)(=O)c2c(Cl)cccc2Cl)C[C@H]1C(=O)NC1(C#N)CC1 [Example 5, (2S,4R)-2-(1-Cyano-cyclopropylcarbamoyl)-4-(2,6-dichloro-benzenesulfonyl)-pyrrolidine-1-carboxylic acid tert-butyl ester] | 0.8 | 9770
CN1CCN(c2ccc(S(=O)(=O)[C@@H]3C[C@@H](C(=O)NC4(C#N)CC4)N(C(=O)OC(C)(C)C)C3)c(C(F)(F)F)c2)CC1 [Example 8, (2S,4R)-2-(1-Cyano-cyclopropylcarbamoyl)-4-[4-(4-methyl-piperazin-1-yl)-2-trifluoromethyl-benzenesulfonyl]-pyrrolidine-1-carboxylic acid tert-butyl ester] | 0.7 | ≥ 25000
Cc1ccc(=O)n(-c2ccc(S(=O)(=O)[C@@H]3C[C@@H](C(=O)NC4(C#N)CC4)N(C(=O)OC(C)(C)C)C3)c(C(F)(F)F)c2)n1 [Example 10, (2S,4R)-2-(1-Cyano-cyclopropylcarbamoyl)-4-[4-(3-methyl-6-oxo-6H-pyridazin-1-yl)-2-trifluoromethyl-benzenesulfonyl]-pyrrolidine-1-carboxylic acid tert-butyl ester] | 0.7 | ≥ 25000
CCc1ccccc1S(=O)(=O)[C@H]1CN[C@H](C(=O)NC2(C#N)CC2)C1 [Example 11, (2S,4R)-4-(2-Ethyl-benzenesulfonyl)-pyrrolidine-2-carboxylic acid (1-cyano-cyclopropyl)-amide Hydrochloride] | 30 | ≥ 25000
N#CC1(NC(=O)[C@@H]2C[C@@H](S(=O)(=O)c3ccccc3CO)CN2)CC1 [Example 12, (2S,4R)-4-(2-Hydroxymethyl-benzenesulfonyl)-pyrrolidine-2-carboxylic acid (1-cyano-cyclopropyl)-amide Hydrochloride] | 18 | 42200
N#CC1(NC(=O)[C@@H]2C[C@@H](S(=O)(=O)c3ccccc3OC(F)(F)F)CN2)CC1 [Example 13, (2S,4R)-4-(2-Trifluoromethoxy-benzenesulfonyl)-pyrrolidine-2-carboxylic acid (1-cyano-cyclopropyl)-amide Hydrochloride] | 46.5 | ≥ 25000
N#CC1(NC(=O)[C@@H]2C[C@@H](S(=O)(=O)c3ccc(Br)cc3C(F)(F)F)CN2)CC1 [Example 18, (2S,4R)-4-(4-Bromo-2-trifluoromethyl-benzenesulfonyl)-pyrrolidine-2-carboxylic acid (1-cyano-cyclopropyl)-amide hydrochloride] | 3.3 | 30300
N#CC1(NC(=O)[C@@H]2C[C@@H](S(=O)(=O)c3ccc(-n4cnc5ccccc54)cc3C(F)(F)F)CN2)CC1 [Example 22, (2S,4R)-4-(4-Benzoimidazol-1-yl-2-trifluoromethyl-benzenesulfonyl)-pyrrolidine-2-carboxylic Acid (1-cyano-cyclopropyl)-amide hydrochloride] | 0.5 | ≥ 25000

More lines, now with the values ahead:

IC50 [1] [nM] | IC50 [2] [nM] | Compound
15 | ≥ 25000 | CC(C)(C)OC(=O)N1C[C@H](S(=O)(=O)c2ccccc2CO)C[C@H]1C(=O)NC1(C#N)CC1 [Example 1, (2S,4R)-2-(1-Cyano-cyclopropylcarbamoyl)-4-(2-hydroxymethyl-benzenesulfonyl)-pyrrolidine-1-carboxylic acid tert-butyl ester]
5.2 | 16500 | CC(C)(C)OC(=O)N1C[C@H](S(=O)(=O)c2ccc(Cl)cc2Cl)C[C@H]1C(=O)NC1(C#N)CC1 [Example 4, (2S,4R)-2-(1-Cyano-cyclopropylcarbamoyl)-4-(2,4-dichloro-benzenesulfonyl)-pyrrolidine-1-carboxylic acid-tert-butyl ester]
38.5 | ≥ 25000 | CC(C)(C)OC(=O)N1C[C@H](S(=O)(=O)c2ccc(F)cc2F)C[C@H]1C(=O)NC1(C#N)CC1 [Example 6, (2S,4R)-2-(1-Cyano-cyclopropylcarbamoyl)-4-(2,4-difluoro-benzenesulfonyl)-pyrrolidine-1-carboxylic acid tert-butyl ester]
2.7 | ≥ 25000 | CC(C)(C)OC(=O)N1C[C@H](S(=O)(=O)c2ccc(Br)cc2C(F)(F)F)C[C@H]1C(=O)NC1(C#N)CC1 [Example 7, (2S,4R)-4-(4-Bromo-2-trifluoromethyl-benzenesulfonyl)-2-(1-cyano-cyclopropylcarbamoyl)-pyrrolidine-1-carboxylic acid tert-butyl ester]
0.6 | ≥ 25000 | CC(C)(C)OC(=O)N1C[C@H](S(=O)(=O)c2ccc(-n3cnc4ccccc43)cc2C(F)(F)F)C[C@H]1C(=O)NC1(C#N)CC1 [Example 9, (2S,4R)-4-(4-Benzoimidazol-1-yl-2-trifluoromethyl-benzenesulfonyl)-2-(1-cyano-cyclopropylcarbamoyl)-pyrrolidine-1-carboxylic acid tert-butyl ester]
3.2 | ≥ 25000 | N#CC1(NC(=O)[C@@H]2C[C@@H](S(=O)(=O)c3ccc(-n4ccnc4)cc3)CN2)CC1 [Example 14, (2S,4R)-4-(4-Imidazol-1-yl-benzenesulfonyl)-pyrrolidine-2-carboxylic acid (1-cyano-cyclopropyl)-amide Hydrochloride]
4.5 | 4920 | N#CC1(NC(=O)[C@@H]2C[C@@H](S(=O)(=O)c3ccc(Cl)cc3Cl)CN2)CC1 [Example 15, (2S,4R)-4-(2,4-Dichloro-benzenesulfonyl)-pyrrolidine-2-carboxylic acid (1-cyano-cyclopropyl)-amide Hydrochloride]
13.2 | ≥ 25000 | N#CC1(NC(=O)[C@@H]2C[C@@H](S(=O)(=O)c3c(Cl)cccc3Cl)CN2)CC1 [Example 16, (2S,4R)-4-(2,6-Dichloro-benzenesulfonyl)-pyrrolidine-2-carboxylic acid (1-cyano-cyclopropyl)-amide Hydrochloride]
32 | ≥ 25000 | N#CC1(NC(=O)[C@@H]2C[C@@H](S(=O)(=O)c3ccc(F)cc3F)CN2)CC1 [Example 17, (2S,4R)-4-(2,4-Difluoro-benzenesulfonyl)-pyrrolidine-2-carboxylic acid (1-cyano-cyclopropyl)-amide Hydrochloride]
1.3 | ≥ 25000 | N#CC1(NC(=O)[C@@H]2C[C@@H](S(=O)(=O)c3ccc(-n4cccn4)cc3C(F)(F)F)CN2)CC1 [Example 19, (2S,4R)-4-(4-Pyrazol-1-yl-2-trifluoromethyl-benzenesulfonyl)-pyrrolidine-2-carboxylic acid (1-cyano-cyclopropyl)-amide hydrochloride]
1 | ≥ 25000 | N#CC1(NC(=O)[C@@H]2C[C@@H](S(=O)(=O)c3ccc(-n4ccnc4)cc3C(F)(F)F)CN2)CC1 [Example 20, (2S,4R)-4-(4-Imidazol-1-yl-2-trifluoromethyl-benzenesulfonyl)-pyrrolidine-2-carboxylic acid (1-cyano-cyclopropyl)-amide hydrochloride]
0.8 | 40800 | CN1CCN(c2ccc(S(=O)(=O)[C@H]3CN[C@H](C(=O)NC4(C#N)CC4)C3)c(C(F)(F)F)c2)CC1 [Example 21, (2S,4R)-4-[4-(4-Methyl-piperazin-1-yl)-2-trifluoromethyl-benzenesulfonyl]-pyrrolidine-2-carboxylic acid (1-cyano-cyclopropyl)-amide hydrochloride]
 | ≥ 25000 | N#CC1(NC(=O)[C@H]2C[C@@H](S(=O)(=O)c3ccccc3C(F)(F)F)CN2c2ncccc2C(F)(F)F)CC1 [Example 187, (2R,4R)-4-(2-Trifluoromethyl-benzenesulfonyl)-1-(3-trifluoromethyl-pyridin-2-yl)-pyrrolidine-2-carboxylic acid (1-cyano-cyclopropyl)-amide]
 | ≥ 25000 | N#CC1(NC(=O)[C@@H]2C[C@@H](S(=O)(=O)c3ccccc3C(F)(F)F)CN2c2ncccn2)CC1 [Example 408, (2S,4R)-1-Pyrimidin-2-yl-4-(2-trifluoromethyl-benzenesulfonyl)-pyrrolidine-2-carboxylic acid (1-cyano-cyclopropyl)-amide]
